For the assay, the target named is T1, human NPY Y5 receptor (Homo sapiens, UniProt Q15761).
T1 construct: expressed in transfected cells; host or cells: COS-7, CHO and LM(tk-)
T1 sequence (Q15761 1-445): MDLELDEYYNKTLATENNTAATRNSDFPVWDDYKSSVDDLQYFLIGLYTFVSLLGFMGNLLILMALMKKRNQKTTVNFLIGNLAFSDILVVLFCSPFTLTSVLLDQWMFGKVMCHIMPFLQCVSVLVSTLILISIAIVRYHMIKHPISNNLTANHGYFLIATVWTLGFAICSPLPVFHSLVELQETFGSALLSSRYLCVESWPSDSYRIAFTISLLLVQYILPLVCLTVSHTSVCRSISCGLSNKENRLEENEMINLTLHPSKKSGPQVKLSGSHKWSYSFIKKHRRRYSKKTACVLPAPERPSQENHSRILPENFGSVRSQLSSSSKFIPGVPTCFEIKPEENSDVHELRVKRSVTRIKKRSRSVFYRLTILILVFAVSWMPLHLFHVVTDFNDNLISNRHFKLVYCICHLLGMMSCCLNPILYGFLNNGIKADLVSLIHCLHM
The experiment in a line: test of inhibition of NPY binding ([125I] peptide YY binding to NPY Y5 receptor). Particulars: [125I] peptide YY 20,000 cpm, 25° C., 2 hours, pH 7.4, membrane preparations of cells expressing NPY Y5 receptor; read-out: IC50 value (concentration needed to inhibit 50% of the specific binding to the peptide YY). From the text: Pharmacological Test Example 1 (test of inhibition of NPY binding)
cDNA Sequence encoding a human NPY Y5 receptor [International Publication WO 96/16542] was cloned into expression vectors pcDNA3, pRc/RSV (manufactured by Invitrogen) and pCI-neo (manufactured by Promega). Using the cationic lipid method [see Proceedings of the National Academy of Science of the United States of America, vol.84, p.7413 (1987)], host cells COS-7, CHO and LM(tk-) (American Type Culture Collection) were transfected with the thus prepared expression vectors to obtain cells in which the NPY Y5 receptor had been expressed.
Each of the membrane preparations thus prepared from the cells in which the NPY Y5 receptor had been expressed was incubated together with each compound to be tested and 20,000 cpm of [^125 I] peptide YY (manufactured by Amersham) at 25° C. for 2 hours in an assay buffer solution (25 mM HEPES buffer, pH 7.4, containing 10 mM magnesium chloride, 1 mM phenylmethylsulfonyl fluoride and 0.1% bacitracin) and then, the reaction mixture was filtered through a glass filter GF/C. After washing with 50 mM Tris buffer, pH 7.4, containing 0.3% BSA, radioactivity on the glass filter was measured using a gamma counter. […]

Turning to `COc1ccc(-c2cc(NC(=O)C3Cc4cc5ccccc5cc4C3)n[nH]2)cc1OC` [Example 30, 3-(2,3-dibydro-1H-cyclopenta[b]naphthalen-2-yl)carbonylamino-5-(3,4-dimethoxyphenyl)pyrazole], the IC50 worked out at 2.5 nM.

(Values after US6057335A, “Pyrazole derivatives” (Banyu Pharmaceutical Co., Ltd., priority 1996, dated 2000).)
